Several values for one entry are separate records, joined by “and”; a condition that tells them apart may be missing. Equal values may be shown once.
Columns and labels:
Assay in all cases: radiometric filter-binding kinase assay
EPHB1 (human) = EPHB1 (human) (UniProt P54762); conditions: compound 100.0 µM; ATP 20 µM
CHEK1 (human) = CHEK1 (human) (UniProt O14757); conditions: compound 100.0 µM; ATP 20 µM
INSR (human) = INSR (human) (UniProt P06213); conditions: compound 100.0 µM; ATP 20 µM
TBK1 (human) = TBK1 (human) (UniProt Q9UHD2); conditions: compound 100.0 µM; ATP 50 µM
MAPK13 (human) = MAPK13 (human) (UniProt O15264); conditions: compound 100.0 µM; ATP 5 µM
Chain of MAPK13 (human) (O15264 whole entry, looked up): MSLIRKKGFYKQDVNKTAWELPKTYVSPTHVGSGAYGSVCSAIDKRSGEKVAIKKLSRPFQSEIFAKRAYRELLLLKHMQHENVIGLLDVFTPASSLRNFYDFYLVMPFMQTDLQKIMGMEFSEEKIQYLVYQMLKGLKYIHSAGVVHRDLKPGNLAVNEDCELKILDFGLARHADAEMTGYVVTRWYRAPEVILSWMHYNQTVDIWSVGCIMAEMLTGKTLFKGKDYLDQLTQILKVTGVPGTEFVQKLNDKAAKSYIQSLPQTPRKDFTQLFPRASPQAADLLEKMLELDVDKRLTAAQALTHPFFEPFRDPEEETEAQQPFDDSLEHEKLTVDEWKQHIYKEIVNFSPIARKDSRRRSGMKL

MAPK9 (human) = MAPK9 (human) (UniProt P45984); conditions: compound 100.0 µM; ATP 20 µM
ROCK2 (rat) = conditions: compound 100.0 µM; ATP 20 µM; accession and sequence are those of the human protein
MKNK1 (human) = MKNK1 (human) (UniProt Q9BUB5); conditions: compound 100.0 µM; ATP 50 µM
CDK2 CCNA2 (human) = CDK2 CCNA2 (human) (UniProt P20248+P24941); conditions: compound 100.0 µM; ATP 20 µM
TEK (human) = TEK (human) (UniProt Q02763); conditions: compound 100.0 µM; ATP 20 µM
EPHB3 (human) = EPHB3 (human) (UniProt P54753); conditions: compound 100.0 µM; ATP 20 µM
IKBKB (human) = IKBKB (human) (UniProt O14920); conditions: compound 100.0 µM; ATP 5 µM
SRC (human) = SRC (human) (UniProt P12931); conditions: compound 100.0 µM; ATP 50 µM
STK16 (human) = STK16 (human) (UniProt O75716); conditions: compound 100.0 µM; ATP 50 µM
PRKACA (human) = PRKACA (human) (UniProt P17612); conditions: compound 100.0 µM; ATP 20 µM
STK33 (human) = STK33 (human) (UniProt Q9BYT3); conditions: compound 100.0 µM; ATP 50 µM
MAP2K2 (human) = MAP2K2 (human) (UniProt P36507); conditions: compound 100.0 µM; ATP 5 µM
MAP2K6 (human) = MAP2K6 (human) (UniProt P52564); conditions: compound 100.0 µM; ATP 50 µM
NUAK1 (human) = NUAK1 (human) (UniProt O60285); conditions: compound 100.0 µM; ATP 20 µM
Chain of NUAK1 (human) (O60285 whole entry, looked up): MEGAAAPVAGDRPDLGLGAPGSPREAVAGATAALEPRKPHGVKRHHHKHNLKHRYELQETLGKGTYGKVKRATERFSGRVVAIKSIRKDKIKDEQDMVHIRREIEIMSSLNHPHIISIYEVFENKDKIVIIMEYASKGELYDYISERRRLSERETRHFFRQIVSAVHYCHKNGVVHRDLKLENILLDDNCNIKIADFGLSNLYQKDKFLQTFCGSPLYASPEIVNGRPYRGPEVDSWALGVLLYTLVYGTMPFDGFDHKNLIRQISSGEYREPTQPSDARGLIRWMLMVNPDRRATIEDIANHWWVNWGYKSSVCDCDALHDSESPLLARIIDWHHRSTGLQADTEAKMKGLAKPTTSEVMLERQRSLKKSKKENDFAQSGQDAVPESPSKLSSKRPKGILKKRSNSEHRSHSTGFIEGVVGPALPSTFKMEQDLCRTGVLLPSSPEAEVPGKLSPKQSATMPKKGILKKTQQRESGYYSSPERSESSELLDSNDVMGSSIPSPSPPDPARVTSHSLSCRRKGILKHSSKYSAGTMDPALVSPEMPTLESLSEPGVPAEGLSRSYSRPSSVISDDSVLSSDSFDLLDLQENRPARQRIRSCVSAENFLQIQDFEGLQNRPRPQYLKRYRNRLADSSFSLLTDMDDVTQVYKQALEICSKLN

HIPK1 (human) = HIPK1 (human) (UniProt Q86Z02); conditions: compound 100.0 µM; ATP 20 µM
MARK4 (human) = MARK4 (human) (UniProt Q96L34); conditions: compound 100.0 µM; ATP 50 µM
Chain of MARK4 (human) (Q96L34 whole entry, looked up): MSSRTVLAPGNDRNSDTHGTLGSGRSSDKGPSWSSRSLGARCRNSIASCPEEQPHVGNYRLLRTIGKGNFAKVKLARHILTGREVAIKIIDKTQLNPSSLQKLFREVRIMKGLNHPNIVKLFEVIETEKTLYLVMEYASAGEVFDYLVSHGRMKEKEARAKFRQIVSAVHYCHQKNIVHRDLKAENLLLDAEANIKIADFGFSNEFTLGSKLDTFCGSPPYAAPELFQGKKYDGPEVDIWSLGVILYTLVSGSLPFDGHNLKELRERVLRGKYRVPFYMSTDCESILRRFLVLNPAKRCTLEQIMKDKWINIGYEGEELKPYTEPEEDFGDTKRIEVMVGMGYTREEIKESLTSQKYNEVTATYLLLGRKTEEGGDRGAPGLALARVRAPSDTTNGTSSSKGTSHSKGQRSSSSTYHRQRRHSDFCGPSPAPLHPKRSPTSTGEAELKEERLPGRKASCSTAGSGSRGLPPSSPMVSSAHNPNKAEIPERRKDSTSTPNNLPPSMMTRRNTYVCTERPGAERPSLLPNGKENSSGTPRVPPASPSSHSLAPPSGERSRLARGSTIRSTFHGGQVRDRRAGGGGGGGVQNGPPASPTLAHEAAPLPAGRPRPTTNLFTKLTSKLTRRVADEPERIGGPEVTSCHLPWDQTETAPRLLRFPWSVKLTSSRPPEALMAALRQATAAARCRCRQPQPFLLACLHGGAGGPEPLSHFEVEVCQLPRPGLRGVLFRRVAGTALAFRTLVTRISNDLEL

BRSK2 (human) = BRSK2 (human) (UniProt Q8IWQ3); conditions: compound 100.0 µM; ATP 50 µM
IKBKE (human) = IKBKE (human) (UniProt Q14164); conditions: compound 100.0 µM; ATP 50 µM
GCK (human) = GCK (human) (UniProt Q12851); conditions: compound 100.0 µM; ATP 20 µM
NTRK1 (human) = NTRK1 (human) (UniProt P04629); conditions: compound 100.0 µM; ATP 20 µM
Chain of NTRK1 (human) (P04629 whole entry, looked up): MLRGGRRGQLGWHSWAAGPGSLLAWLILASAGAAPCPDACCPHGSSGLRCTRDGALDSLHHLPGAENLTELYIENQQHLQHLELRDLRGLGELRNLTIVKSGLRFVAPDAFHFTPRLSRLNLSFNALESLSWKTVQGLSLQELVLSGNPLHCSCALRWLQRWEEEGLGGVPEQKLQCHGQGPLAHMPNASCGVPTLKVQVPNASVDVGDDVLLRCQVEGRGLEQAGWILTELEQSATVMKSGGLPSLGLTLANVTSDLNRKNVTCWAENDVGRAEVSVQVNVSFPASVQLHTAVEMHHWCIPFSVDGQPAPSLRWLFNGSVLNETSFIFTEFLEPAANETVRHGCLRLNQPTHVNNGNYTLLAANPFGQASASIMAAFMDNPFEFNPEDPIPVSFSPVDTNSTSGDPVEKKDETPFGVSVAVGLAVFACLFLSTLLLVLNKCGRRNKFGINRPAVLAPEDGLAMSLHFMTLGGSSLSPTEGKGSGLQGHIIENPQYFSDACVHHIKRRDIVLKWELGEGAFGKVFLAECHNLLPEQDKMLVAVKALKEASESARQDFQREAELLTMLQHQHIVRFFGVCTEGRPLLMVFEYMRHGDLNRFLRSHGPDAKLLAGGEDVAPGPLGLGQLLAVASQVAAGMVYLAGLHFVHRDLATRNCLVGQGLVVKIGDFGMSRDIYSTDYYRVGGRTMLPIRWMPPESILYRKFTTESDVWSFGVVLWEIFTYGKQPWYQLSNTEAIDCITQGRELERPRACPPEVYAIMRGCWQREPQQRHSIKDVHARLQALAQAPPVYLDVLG

GSK3B (human) = GSK3B (human) (UniProt P49841); conditions: compound 100.0 µM; ATP 5 µM
MAPK14 (human) = MAPK14 (human) (UniProt Q16539); conditions: compound 100.0 µM; ATP 50 µM
RPS6KA3 KD1 KD2 (human) = RPS6KA3 KD1 KD2 (human) (UniProt P51812); conditions: compound 100.0 µM; ATP 50 µM
MARK3 (human) = MARK3 (human) (UniProt P27448); conditions: compound 100.0 µM; ATP 5 µM
MAPK12 (human) = MAPK12 (human) (UniProt P53778); conditions: compound 100.0 µM; ATP 5 µM
PTK6 (human) = PTK6 (human) (UniProt Q13882); conditions: compound 100.0 µM; ATP 20 µM
Chain of PTK6 (human) (Q13882 whole entry, looked up): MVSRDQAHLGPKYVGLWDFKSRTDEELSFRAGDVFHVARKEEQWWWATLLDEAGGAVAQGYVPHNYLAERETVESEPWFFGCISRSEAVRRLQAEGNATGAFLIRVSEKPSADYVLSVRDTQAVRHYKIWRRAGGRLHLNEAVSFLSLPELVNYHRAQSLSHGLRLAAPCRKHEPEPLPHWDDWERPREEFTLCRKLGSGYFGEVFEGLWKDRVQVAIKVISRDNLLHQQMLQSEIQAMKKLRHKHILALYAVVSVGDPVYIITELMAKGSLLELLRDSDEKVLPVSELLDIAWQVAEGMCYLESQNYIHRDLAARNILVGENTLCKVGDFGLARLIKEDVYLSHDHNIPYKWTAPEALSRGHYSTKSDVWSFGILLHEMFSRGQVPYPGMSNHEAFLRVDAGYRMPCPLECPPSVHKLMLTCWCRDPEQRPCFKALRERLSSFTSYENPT

PRKCZ (human) = PRKCZ (human) (UniProt Q05513); conditions: compound 100.0 µM; ATP 5 µM
JAK2 JH1 JH2 (human) = JAK2 JH1 JH2 (human) (UniProt O60674); conditions: compound 100.0 µM; ATP 5 µM
Chain of JAK2 JH1 JH2 (human) (O60674 whole entry, looked up): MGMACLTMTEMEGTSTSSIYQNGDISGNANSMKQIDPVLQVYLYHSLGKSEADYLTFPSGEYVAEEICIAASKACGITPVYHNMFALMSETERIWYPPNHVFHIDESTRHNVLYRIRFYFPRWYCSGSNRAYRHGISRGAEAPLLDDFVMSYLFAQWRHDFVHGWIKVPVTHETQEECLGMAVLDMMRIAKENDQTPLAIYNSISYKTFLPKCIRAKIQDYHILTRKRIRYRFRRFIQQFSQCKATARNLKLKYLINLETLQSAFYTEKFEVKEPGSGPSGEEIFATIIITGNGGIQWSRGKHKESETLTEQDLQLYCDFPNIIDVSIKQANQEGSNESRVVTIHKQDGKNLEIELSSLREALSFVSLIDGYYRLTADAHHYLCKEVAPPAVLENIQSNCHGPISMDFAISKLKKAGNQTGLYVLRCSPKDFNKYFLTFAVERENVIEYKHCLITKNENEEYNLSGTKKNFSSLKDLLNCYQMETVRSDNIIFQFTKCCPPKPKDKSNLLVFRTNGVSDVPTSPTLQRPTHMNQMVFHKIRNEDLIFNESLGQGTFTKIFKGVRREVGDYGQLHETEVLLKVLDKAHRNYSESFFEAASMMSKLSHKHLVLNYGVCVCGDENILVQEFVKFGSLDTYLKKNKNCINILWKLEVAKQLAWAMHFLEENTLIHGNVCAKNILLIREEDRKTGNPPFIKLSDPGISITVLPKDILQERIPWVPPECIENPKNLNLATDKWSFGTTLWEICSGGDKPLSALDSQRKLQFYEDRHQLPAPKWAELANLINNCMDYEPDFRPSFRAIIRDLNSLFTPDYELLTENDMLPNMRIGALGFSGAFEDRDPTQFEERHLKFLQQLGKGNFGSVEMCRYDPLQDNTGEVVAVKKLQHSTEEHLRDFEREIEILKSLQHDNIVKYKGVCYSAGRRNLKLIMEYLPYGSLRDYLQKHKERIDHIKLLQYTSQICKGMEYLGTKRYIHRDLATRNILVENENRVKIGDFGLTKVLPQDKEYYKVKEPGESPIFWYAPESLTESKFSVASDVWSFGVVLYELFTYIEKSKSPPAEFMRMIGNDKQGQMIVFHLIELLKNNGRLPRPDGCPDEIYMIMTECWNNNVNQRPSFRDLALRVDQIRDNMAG

EPHB2 (human) = EPHB2 (human) (UniProt P29323); conditions: compound 100.0 µM; ATP 20 µM
EPHB4 (human) = EPHB4 (human) (UniProt P54760); conditions: compound 100.0 µM; ATP 5 µM
PLK1 (human) = PLK1 (human) (UniProt P53350); conditions: compound 100.0 µM; ATP 5 µM
Chain of PLK1 (human) (P53350 whole entry, looked up): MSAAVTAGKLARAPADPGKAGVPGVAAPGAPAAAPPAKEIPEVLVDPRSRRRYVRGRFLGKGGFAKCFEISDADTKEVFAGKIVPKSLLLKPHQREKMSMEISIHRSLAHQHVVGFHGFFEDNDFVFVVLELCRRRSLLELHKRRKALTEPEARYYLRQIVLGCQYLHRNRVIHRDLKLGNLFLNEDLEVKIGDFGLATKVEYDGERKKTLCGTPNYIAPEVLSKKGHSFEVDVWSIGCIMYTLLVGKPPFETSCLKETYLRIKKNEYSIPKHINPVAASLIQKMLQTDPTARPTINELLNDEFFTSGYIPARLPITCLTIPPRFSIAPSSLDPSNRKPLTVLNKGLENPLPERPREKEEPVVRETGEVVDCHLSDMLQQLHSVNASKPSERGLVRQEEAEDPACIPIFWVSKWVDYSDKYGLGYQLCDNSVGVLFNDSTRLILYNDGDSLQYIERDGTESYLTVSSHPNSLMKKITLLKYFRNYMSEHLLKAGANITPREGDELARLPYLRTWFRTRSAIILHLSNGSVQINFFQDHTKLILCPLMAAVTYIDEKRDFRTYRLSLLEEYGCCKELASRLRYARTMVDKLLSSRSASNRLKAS

inhibition (EPHB1 (human)) [%]	inhibition (CHEK1 (human)) [%]	inhibition (INSR (human)) [%]	inhibition (TBK1 (human)) [%]	inhibition (MAPK13 (human)) [%]	inhibition (MAPK9 (human)) [%]	inhibition (ROCK2 (rat)) [%]	inhibition (MKNK1 (human)) [%]	inhibition (CDK2 CCNA2 (human)) [%]	inhibition (TEK (human)) [%]	inhibition (EPHB3 (human)) [%]	inhibition (IKBKB (human)) [%]	inhibition (SRC (human)) [%]	inhibition (STK16 (human)) [%]	inhibition (PRKACA (human))	inhibition (STK33 (human)) [%]	inhibition (MAP2K2 (human)) [%]	inhibition (MAP2K6 (human)) [%]	inhibition (NUAK1 (human)) [%]	inhibition (HIPK1 (human)) [%]	Compound	other results
0	0	0	15	19	0	0	0	0	0	4	0	0	0	0% and 1%	0	0	0	0	0	CC(=O)Nc1nc2cnc(-c3c(C)cccc3C)cn2n1	inhibition (MARK4 (human)): 17%; inhibition (BRSK2 (human)): 11%; inhibition (IKBKE (human)): 0%; inhibition (GCK (human)): 0%; inhibition (NTRK1 (human)): 0%; inhibition (GSK3B (human)): 8%; inhibition (MAPK14 (human)): 0%; inhibition (RPS6KA3 KD1 KD2 (human)): 23%; inhibition (MARK3 (human)): 0%; inhibition (MAPK12 (human)): 0%; inhibition (PTK6 (human)): 0%; inhibition (PRKCZ (human)): 0%; inhibition (JAK2 JH1 JH2 (human)): 9%; inhibition (EPHB2 (human)): 0%; inhibition (EPHB4 (human)): 27%; inhibition (PLK1 (human)): 0%
22	9	24	21	15	0	19	24	17	6	35	0	29	6	0% and 19%	12	28	8	28	16	Cc1cccc(C)c1-c1cn2nc(N)nc2cn1	inhibition (MARK4 (human)): 24%; inhibition (BRSK2 (human)): 18%; inhibition (IKBKE (human)): 28%; inhibition (GCK (human)): 59%; inhibition (NTRK1 (human)): 8%; inhibition (GSK3B (human)): 27%; inhibition (MAPK14 (human)): 35%; inhibition (RPS6KA3 KD1 KD2 (human)): 42%; inhibition (MARK3 (human)): 0%; inhibition (MAPK12 (human)): 0%; inhibition (PTK6 (human)): 15%; inhibition (PRKCZ (human)): 6%; inhibition (JAK2 JH1 JH2 (human)): 16%; inhibition (EPHB2 (human)): 0%; inhibition (EPHB4 (human)): 14%; inhibition (PLK1 (human)): 8%

The remaining lines, values behind:

Compound	inhibition (EPHB1 (human)) [%]	inhibition (CHEK1 (human)) [%]	inhibition (INSR (human)) [%]	inhibition (TBK1 (human)) [%]	inhibition (MAPK13 (human)) [%]	inhibition (MAPK9 (human)) [%]	inhibition (ROCK2 (rat)) [%]	inhibition (MKNK1 (human)) [%]	inhibition (CDK2 CCNA2 (human)) [%]	inhibition (TEK (human)) [%]	inhibition (EPHB3 (human)) [%]	inhibition (IKBKB (human)) [%]	inhibition (SRC (human)) [%]	inhibition (STK16 (human)) [%]	inhibition (PRKACA (human))	inhibition (STK33 (human)) [%]	inhibition (MAP2K2 (human)) [%]	inhibition (MAP2K6 (human)) [%]	inhibition (NUAK1 (human)) [%]	inhibition (HIPK1 (human)) [%]	other results
O=C(c1cccc(-c2cc3c(=O)[nH]cnc3s2)c1)N1CCOCC1	0	0	0	17	0	0	39	0	10	0	6	37	33	4	17% and 42%	0	8	2	0	10	inhibition (MARK4 (human)): 0%; inhibition (BRSK2 (human)): 30%; inhibition (IKBKE (human)): 36%; inhibition (GCK (human)): 7%; inhibition (NTRK1 (human)): 41%; inhibition (GSK3B (human)): 70%; inhibition (MAPK14 (human)): 0%; inhibition (RPS6KA3 KD1 KD2 (human)): 39%; inhibition (MARK3 (human)): 29%; inhibition (MAPK12 (human)): 0%; inhibition (PTK6 (human)): 50%; inhibition (PRKCZ (human)): 0%; inhibition (JAK2 JH1 JH2 (human)): 75%; inhibition (EPHB2 (human)): 27%; inhibition (EPHB4 (human)): 0%; inhibition (PLK1 (human)): 0%
O=c1c(NC(=S)NCc2ccccc2)cnc2[nH]ccn12	3	0	0	0	0	7	13	0	0	0	0	0	0	0	0%	13	0	0	0	0	inhibition (MARK4 (human)): 21%; inhibition (BRSK2 (human)): 18%; inhibition (IKBKE (human)): 0%; inhibition (GCK (human)): 0%; inhibition (NTRK1 (human)): 0%; inhibition (GSK3B (human)): 13%; inhibition (MAPK14 (human)): 0%; inhibition (RPS6KA3 KD1 KD2 (human)): 20%; inhibition (MARK3 (human)): 9%; inhibition (MAPK12 (human)): 0%; inhibition (PTK6 (human)): 31%; inhibition (PRKCZ (human)): 0%; inhibition (JAK2 JH1 JH2 (human)): 0%; inhibition (EPHB2 (human)): 3%; inhibition (EPHB4 (human)): 9%; inhibition (PLK1 (human)): 0%
CC(=O)Nc1nc2cnc(-c3ccccc3)cn2n1	22	18	60	31	1	1	25	53	34	11	32	10	18	0	0%	5	6	0	33	16	inhibition (MARK4 (human)): 0%; inhibition (BRSK2 (human)): 20%; inhibition (IKBKE (human)): 23%; inhibition (GCK (human)): 39%; inhibition (NTRK1 (human)): 28%; inhibition (GSK3B (human)): 73%; inhibition (MAPK14 (human)): 10%; inhibition (RPS6KA3 KD1 KD2 (human)): 9%; inhibition (MARK3 (human)): 38%; inhibition (MAPK12 (human)): 24%; inhibition (PTK6 (human)): 1%; inhibition (PRKCZ (human)): 11%; inhibition (JAK2 JH1 JH2 (human)): 25%; inhibition (EPHB2 (human)): 4%; inhibition (EPHB4 (human)): 11%; inhibition (PLK1 (human)): 4%
CC1CN(c2nc3ccccn3c(=O)c2N)CC(C)O1 (stereo unspecified)	0	0	1	0	0	6	17	0	8	5	0	22	73	6	0% and 15%	8	0	1	3	0	inhibition (MARK4 (human)): 56%; inhibition (BRSK2 (human)): 32%; inhibition (IKBKE (human)): 0%; inhibition (GCK (human)): 0%; inhibition (NTRK1 (human)): 37%; inhibition (GSK3B (human)): 64%; inhibition (MAPK14 (human)): 0%; inhibition (RPS6KA3 KD1 KD2 (human)): 84%; inhibition (MARK3 (human)): 25%; inhibition (MAPK12 (human)): 1%; inhibition (PTK6 (human)): 21%; inhibition (PRKCZ (human)): 0%; inhibition (JAK2 JH1 JH2 (human)): 35%; inhibition (EPHB2 (human)): 20%; inhibition (EPHB4 (human)): 12%; inhibition (PLK1 (human)): 0%

From the kinase profiling compilation of Christmann-Franck et al. (2016)
